System: MV-4-11 cells
Assay: Gene expression microarray analysis (Affymetrix PrimeView) and GSEA
Type: cell-based, human
Design: RFU PODN (11730768_x_at) / Fold change /veh PODN (11730768_x_at) / RFU LINC00158 (11744669_a_at) / Fold change /veh LINC00158 (11744669_a_at) / RFU DUSP10 (11751237_a_at) / Fold change /veh DUSP10 (11751237_a_at) / RFU ID3 (11757404_x_at) / Fold change /veh ID3 (11757404_x_at) / RFU PLEKHG5 (11737974_s_at) / Fold change /veh PLEKHG5 (11737974_s_at) / RFU LRRC4B (11730491_at) / Fold change /veh LRRC4B (11730491_at) / RFU GIMAP4 (11747438_a_at) / Fold change /veh GIMAP4 (11747438_a_at) / RFU KRT8 (11758183_x_at) / Fold change /veh KRT8 (11758183_x_at) / RFU CNN1 (11734310_a_at) / Fold change /veh CNN1 (11734310_a_at) / RFU VPS37D (11726825_at) / Fold change /veh VPS37D (11726825_at) / RFU C10orf10 (11716522_x_at) / Fold change /veh C10orf10 (11716522_x_at) / RFU KIR2DL2 /// KIR2DL4 /// KIR2DL5A /// KIR2DL5B /// KIR2DS1 /// KIR2DS2 /// KIR2DS3 /// KIR2DS4 /// KIR3DL3 /// KIR3DL3 /// KIR3DS1 (11738374_at) / Fold change /veh KIR2DL2 /// KIR2DL4 /// KIR2DL5A /// KIR2DL5B /// KIR2DS1 /// KIR2DS2 /// KIR2DS3 /// KIR2DS4 /// KIR3DL3 /// KIR3DL3 /// KIR3DS1 (11738374_at) / RFU C1QL1 (11718748_at) / Fold change /veh C1QL1 (11718748_at) / RFU TMPRSS4 (11747572_a_at) / Fold change /veh TMPRSS4 (11747572_a_at) / RFU HAMP (11756126_x_at) / Fold change /veh HAMP (11756126_x_at) / RFU RNFT2 (11725882_a_at) / Fold change /veh RNFT2 (11725882_a_at) / RFU NR4A2 (11747474_a_at) / Fold change /veh NR4A2 (11747474_a_at) / RFU ABCC12 (11746883_a_at) / Fold change /veh ABCC12 (11746883_a_at) / RFU TMEM136 (11760407_x_at) / Fold change /veh TMEM136 (11760407_x_at) / RFU CLDN22 /// WWC2 (11732394_at) / Fold change /veh CLDN22 /// WWC2 (11732394_at) / RFU HLA-DPB1 (11760878_x_at) / Fold change /veh HLA-DPB1 (11760878_x_at) / RFU SPINT1 (11716480_a_at) / Fold change /veh SPINT1 (11716480_a_at) / RFU GAP43 (11754022_s_at) / Fold change /veh GAP43 (11754022_s_at) / RFU A4GNT (11735810_at) / Fold change /veh A4GNT (11735810_at) / RFU PRB3 (11715151_x_at) / Fold change /veh PRB3 (11715151_x_at) / RFU TUBB4B (11761932_at) / Fold change /veh TUBB4B (11761932_at) / RFU CAPN14 (11732068_a_at) / Fold change /veh CAPN14 (11732068_a_at) / RFU TMCC2 (11721928_a_at) / Fold change /veh TMCC2 (11721928_a_at) / RFU IRGQ (11745062_a_at) / Fold change /veh IRGQ (11745062_a_at) / RFU FAM174B (11720279_a_at) / Fold change /veh FAM174B (11720279_a_at) / RFU TMPRSS4 (11748680_a_at) / Fold change /veh TMPRSS4 (11748680_a_at) / RFU FAM212B (11763350_a_at) / Fold change /veh FAM212B (11763350_a_at) / RFU PLEKHG5 (11743358_a_at) / Fold change /veh PLEKHG5 (11743358_a_at) / RFU ZSCAN30 (11745921_a_at) / Fold change /veh ZSCAN30 (11745921_a_at) / RFU CMKLR1 (11741424_a_at) / Fold change /veh CMKLR1 (11741424_a_at) / RFU LOC101060620 /// MAPK8IP1 (11723275_at) / Fold change /veh LOC101060620 /// MAPK8IP1 (11723275_at) / RFU SPTSSB (11747773_x_at) / Fold change /veh SPTSSB (11747773_x_at) / RFU PRSS12 (11739890_at) / Fold change /veh PRSS12 (11739890_at) / RFU BIN1 (11741810_x_at) / Fold change /veh BIN1 (11741810_x_at) / RFU WNT11 (11732464_a_at) / Fold change /veh WNT11 (11732464_a_at) / RFU C10orf10 (11716521_a_at) / Fold change /veh C10orf10 (11716521_a_at) / RFU C5orf56 (11738089_at) / Fold change /veh C5orf56 (11738089_at) / RFU CYB561 (11721691_x_at) / Fold change /veh CYB561 (11721691_x_at) / RFU ANKRD19P (11752326_a_at) / Fold change /veh ANKRD19P (11752326_a_at) / RFU OR2T12 /// OR2T33 /// OR2T8 (11738714_s_at) / Fold change /veh OR2T12 /// OR2T33 /// OR2T8 (11738714_s_at) / RFU VCAN (11748164_a_at) / Fold change /veh VCAN (11748164_a_at) / RFU JSRP1 (11732532_at) / Fold change /veh JSRP1 (11732532_at) / RFU KRTAP10-11 (11738290_x_at) / Fold change /veh KRTAP10-11 (11738290_x_at) / RFU MYO3A (11730013_a_at) / Fold change /veh MYO3A (11730013_a_at) / RFU EBF3 (11725865_a_at) / Fold change /veh EBF3 (11725865_a_at) / RFU CAMK2N1 (11719241_x_at) / Fold change /veh CAMK2N1 (11719241_x_at) / RFU C5orf56 (11738088_a_at) / Fold change /veh C5orf56 (11738088_a_at) / RFU OLFML3 (11715873_a_at) / Fold change /veh OLFML3 (11715873_a_at) / RFU LOC100653217 /// NTM (11731650_a_at) / Fold change /veh LOC100653217 /// NTM (11731650_a_at) / RFU MAPK11 (11762145_a_at) / Fold change /veh MAPK11 (11762145_a_at) / RFU FIZ1 (11724087_x_at) / Fold change /veh FIZ1 (11724087_x_at) / RFU OASL (11726364_x_at) / Fold change /veh OASL (11726364_x_at) / RFU SOX15 (11748057_x_at) / Fold change /veh SOX15 (11748057_x_at) / RFU CD79A (11719716_a_at) / Fold change /veh CD79A (11719716_a_at) / RFU HIST1H1D (11736915_at) / Fold change /veh HIST1H1D (11736915_at) / RFU CASKIN2 (11723855_a_at) / Fold change /veh CASKIN2 (11723855_a_at) / RFU LOC730098 (11760151_x_at) / Fold change /veh LOC730098 (11760151_x_at) / RFU OR4N2 (11742367_at) / Fold change /veh OR4N2 (11742367_at) / RFU PRRT2 (11749266_a_at) / Fold change /veh PRRT2 (11749266_a_at) / RFU SNX32 (11753110_a_at) / Fold change /veh SNX32 (11753110_a_at) / RFU CDHR5 (11726645_a_at) / Fold change /veh CDHR5 (11726645_a_at) / RFU RCAN1 (11760418_a_at) / Fold change /veh RCAN1 (11760418_a_at) / RFU FAM167A (11723789_a_at) / Fold change /veh FAM167A (11723789_a_at) / RFU FAM26E (11764081_at) / Fold change /veh FAM26E (11764081_at) / RFU ISYNA1 (11749810_s_at) / Fold change /veh ISYNA1 (11749810_s_at) / RFU ACY1 (11761880_at) / Fold change /veh ACY1 (11761880_at) / RFU 11764098_at / Fold change /veh 11764098_at / RFU SAMD14 (11745864_x_at) / Fold change /veh SAMD14 (11745864_x_at) / RFU NPB (11741838_a_at) / Fold change /veh NPB (11741838_a_at) / RFU TMPRSS6 (11731388_a_at) / Fold change /veh TMPRSS6 (11731388_a_at) / RFU KRTAP10-2 (11738614_at) / Fold change /veh KRTAP10-2 (11738614_at) / RFU ARHGAP8 /// PRR5-ARHGAP8 (11727945_x_at) / Fold change /veh ARHGAP8 /// PRR5-ARHGAP8 (11727945_x_at) / RFU KRTAP5-7 /// NADSYN1 (11734609_at) / Fold change /veh KRTAP5-7 /// NADSYN1 (11734609_at) / RFU RASL12 (11751679_a_at) / Fold change /veh RASL12 (11751679_a_at) / RFU CDKN2B (11736163_a_at) / Fold change /veh CDKN2B (11736163_a_at) / RFU PRF1 (11729649_at) / Fold change /veh PRF1 (11729649_at) / RFU, ZNF638 /// ZNF638-IT1 / Fold change vs veh, ZNF638 /// ZNF638-IT1 / RFU, PANK3 / Fold change vs veh, PANK3 / RFU, SH3YL1 / Fold change vs veh, SH3YL1 / RFU, ZEB2 / Fold change vs veh, ZEB2 / RFU, NRIP1 / Fold change vs veh, NRIP1 / RFU, PTTG1IP / Fold change vs veh, PTTG1IP / RFU, CAPN2 / Fold change vs veh, CAPN2 / RFU, MED14 / Fold change vs veh, MED14 / RFU, SNORA58 / Fold change vs veh, SNORA58 / RFU, C1orf63 / Fold change vs veh, C1orf63 / RFU, LRRFIP1 / Fold change vs veh, LRRFIP1 / RFU, NDUFAF7 / Fold change vs veh, NDUFAF7 / RFU, SLC12A2 / Fold change vs veh, SLC12A2 / RFU, IBTK / Fold change vs veh, IBTK / RFU, ESF1 / Fold change vs veh, ESF1 / Fold change vs veh, TMEM50B / RFU, TAOK1 / Fold change vs veh, TAOK1 / RFU, ACBD3 / Fold change vs veh, ACBD3 / RFU, TMA16 / Fold change vs veh, TMA16 / RFU, RWDD3 / Fold change vs veh, RWDD3 / RFU, BCAT1 / Fold change vs veh, BCAT1 / RFU, EDEM3 / Fold change vs veh, EDEM3 / RFU, TMEM33 / Fold change vs veh, TMEM33 / RFU, WDR75 / Fold change vs veh, WDR75 / RFU, AHCTF1 / Fold change vs veh, AHCTF1 / RFU, TFRC / Fold change vs veh, TFRC / RFU, ZDHHC17 / Fold change vs veh, ZDHHC17 / RFU, NOM1 / Fold change vs veh, NOM1 / RFU, ARL8B / Fold change vs veh, ARL8B / RFU, ZBTB11 / Fold change vs veh, ZBTB11 / RFU, TAMM41 / Fold change vs veh, TAMM41 / RFU, KIAA1704 /// LOC100996395 / Fold change vs veh, KIAA1704 /// LOC100996395 / RFU, ING1 / Fold change vs veh, ING1 / RFU, TRMT61B / Fold change vs veh, TRMT61B / RFU, FUBP3 / Fold change vs veh, FUBP3 / RFU, TP53 / Fold change vs veh, TP53 / RFU, TNKS2 / Fold change vs veh, TNKS2 / RFU, ZFP14 / Fold change vs veh, ZFP14 / RFU, ACTR2 / Fold change vs veh, ACTR2 / RFU, PPP3R1 / Fold change vs veh, PPP3R1 / RFU, PIK3R1 / Fold change vs veh, PIK3R1 / RFU, HNRNPA1 / Fold change vs veh, HNRNPA1 / RFU, RNF170 / Fold change vs veh, RNF170 / RFU, ZNF28 / Fold change vs veh, ZNF28 / RFU, RNGTT / Fold change vs veh, RNGTT / RFU, OGT / Fold change vs veh, OGT / RFU, BRD1 / Fold change vs veh, BRD1 / RFU, MARS / Fold change vs veh, MARS / RFU, ZNF655 / Fold change vs veh, ZNF655 / RFU, FAHD1 / Fold change vs veh, FAHD1 / RFU, BDP1 / Fold change vs veh, BDP1 / RFU, LRRCC1 / Fold change vs veh, LRRCC1 / RFU, ARID1A / Fold change vs veh, ARID1A / RFU, ZNF146 / Fold change vs veh, ZNF146 / RFU, ZNF330 / Fold change vs veh, ZNF330 / RFU, GPN3 / Fold change vs veh, GPN3 / RFU, C9orf123 / Fold change vs veh, C9orf123 / RFU, N4BP2L2 / Fold change vs veh, N4BP2L2 / RFU, ARFIP1 / Fold change vs veh, ARFIP1 / RFU, FAM179B / Fold change vs veh, FAM179B / RFU, BCL10 / Fold change vs veh, BCL10 / RFU, UHRF1BP1L / Fold change vs veh, UHRF1BP1L / RFU, BET1 / Fold change vs veh, BET1 / RFU, CNOT2 / Fold change vs veh, CNOT2 / RFU, ZNF268 / Fold change vs veh, ZNF268 / Fold change vs veh, ZNF507 / RFU, DGCR2 / Fold change vs veh, DGCR2 / RFU, WDSUB1 / Fold change vs veh, WDSUB1 / Fold change vs veh, HSP90B1 /// MIR3652 / RFU, ADSS / Fold change vs veh, ADSS / RFU, GK / Fold change vs veh, GK / RFU, ZNF148 / Fold change vs veh, ZNF148 / RFU, TAF9 / Fold change vs veh, TAF9 / RFU, SLC1A5 / Fold change vs veh, SLC1A5 / RFU, SLMO2 / Fold change vs veh, SLMO2 / RFU, ABCC4 / Fold change vs veh, ABCC4 / RFU, LOC101060439 /// RAP1B / Fold change vs veh, LOC101060439 /// RAP1B / RFU, RFX7 / Fold change vs veh, RFX7 / RFU, GTPBP10 / Fold change vs veh, GTPBP10 / RFU, CNEP1R1 / Fold change vs veh, CNEP1R1 / RFU, BIVM-ERCC5 /// ERCC5 / Fold change vs veh, BIVM-ERCC5 /// ERCC5 / RFU, ILF3 / Fold change vs veh, ILF3 / RFU 11762660_at / Fold change /veh 11762660_at / RFU VCAN (11757783_s_at) / Fold change /veh VCAN (11757783_s_at) / RFU DDX43 (11728927_at) / Fold change /veh DDX43 (11728927_at) / RFU KRT8 (11758188_x_at) / Fold change /veh KRT8 (11758188_x_at) / RFU NKD1 (11759106_at) / Fold change /veh NKD1 (11759106_at) / RFU SRD5A1 (11742802_a_at) / Fold change /veh SRD5A1 (11742802_a_at) / RFU TPSAB1 /// TPSB2 (11721975_s_at) / Fold change /veh TPSAB1 /// TPSB2 (11721975_s_at) / RFU GSTM3 (11746129_a_at) / Fold change /veh GSTM3 (11746129_a_at) / RFU IL23R (11737362_x_at) / Fold change /veh IL23R (11737362_x_at) / RFU TMEM51 (11727254_a_at) / Fold change /veh TMEM51 (11727254_a_at) / RFU PIWIL2 (11732686_x_at) / Fold change /veh PIWIL2 (11732686_x_at) / RFU ORM1 (11744905_x_at) / Fold change /veh ORM1 (11744905_x_at) / RFU CCDC152 (11743942_at) / Fold change /veh CCDC152 (11743942_at) / RFU ECM1 (11717891_a_at) / Fold change /veh ECM1 (11717891_a_at) / RFU IL23R (11748794_a_at) / Fold change /veh IL23R (11748794_a_at) / RFU TNFAIP8L3 (11732012_x_at) / Fold change /veh TNFAIP8L3 (11732012_x_at) / RFU MBOAT4 (11741988_at) / Fold change /veh MBOAT4 (11741988_at) / RFU 11764193_at / Fold change /veh 11764193_at / RFU TMEM53 (11763286_at) / Fold change /veh TMEM53 (11763286_at) / RFU MAGEB2 (11727129_at) / Fold change /veh MAGEB2 (11727129_at) / RFU TMEM200A (11744735_a_at) / Fold change /veh TMEM200A (11744735_a_at) / RFU CCDC152 (11751479_a_at) / Fold change /veh CCDC152 (11751479_a_at) / RFU FAM211A (11726209_a_at) / Fold change /veh FAM211A (11726209_a_at) / RFU RGS16 (11746705_a_at) / Fold change /veh RGS16 (11746705_a_at) / RFU VCAN (11755009_s_at) / Fold change /veh VCAN (11755009_s_at) / RFU RHOB (11743442_s_at) / Fold change /veh RHOB (11743442_s_at) / RFU RGS16 (11720943_a_at) / Fold change /veh RGS16 (11720943_a_at) / RFU RGS16 (11720944_at) / Fold change /veh RGS16 (11720944_at) / RFU, VPS4B / Fold change vs veh, VPS4B / RFU, CREB1 / Fold change vs veh, CREB1 / RFU, DNAJC13 / Fold change vs veh, DNAJC13 / RFU, GNAQ / Fold change vs veh, GNAQ / RFU, CDK5R1 / Fold change vs veh, CDK5R1 / RFU, ZRANB3 / Fold change vs veh, ZRANB3 / RFU, CUL4A / Fold change vs veh, CUL4A / RFU, CCNY / Fold change vs veh, CCNY / RFU, UFL1 / Fold change vs veh, UFL1 / RFU, COG3 / Fold change vs veh, COG3 / RFU, DIAPH2 / Fold change vs veh, DIAPH2 / RFU, SKA2 / Fold change vs veh, SKA2 / RFU, AFF3 / Fold change vs veh, AFF3 / RFU, LMF1 / Fold change vs veh, LMF1 / RFU, IPO11 / Fold change vs veh, IPO11 / RFU, DFFB / Fold change vs veh, DFFB / RFU, FOXP1 / Fold change vs veh, FOXP1 / RFU, CARD8 / Fold change vs veh, CARD8 / RFU, STRN3 / Fold change vs veh, STRN3 / RFU, ADK / Fold change vs veh, ADK / RFU, RASSF2 / Fold change vs veh, RASSF2 / RFU, WIPF1 / Fold change vs veh, WIPF1 / RFU, LARP1B / Fold change vs veh, LARP1B / RFU, RASA1 / Fold change vs veh, RASA1 / RFU, RB1 / Fold change vs veh, RB1 / RFU, PPFIA1 / Fold change vs veh, PPFIA1 / RFU, MAT2A / Fold change vs veh, MAT2A / RFU, CCT5 / Fold change vs veh, CCT5 / RFU, WDR92 / Fold change vs veh, WDR92 / RFU, CUX1 / Fold change vs veh, CUX1 / RFU, TTC7A / Fold change vs veh, TTC7A / RFU, TMEM135 / Fold change vs veh, TMEM135 / RFU, DEPTOR / Fold change vs veh, DEPTOR / RFU, CPM / Fold change vs veh, CPM / RFU, DNAJB6 / Fold change vs veh, DNAJB6 / RFU, CACNA2D3 / Fold change vs veh, CACNA2D3 / RFU, DTX4 / Fold change vs veh, DTX4 / RFU, TFCP2 / Fold change vs veh, TFCP2 / RFU, GMCL1 /// GMCL1P1 / Fold change vs veh, GMCL1 /// GMCL1P1 / RFU, AEBP2 / Fold change vs veh, AEBP2 / RFU, SNHG1 /// SNORD22 /// SNORD25 /// SNORD26 /// SNORD27 /// SNORD28 /// SNORD29 /// SNORD31 / Fold change vs veh, SNHG1 /// SNORD22 /// SNORD25 /// SNORD26 /// SNORD27 /// SNORD28 /// SNORD29 /// SNORD31 / Fold change (Aza/veh), C12orf56 (ProbeSet 11735607_a_at) / Fold change (ACY-1035/veh), C12orf56 (ProbeSet 11735607_a_at) / Fold change (Aza/veh), FGFR1OP (ProbeSet 11751329_s_at) / Fold change (ACY-1035/veh), FGFR1OP (ProbeSet 11751329_s_at) / Fold change (Aza/veh), VPS36 (ProbeSet 11739960_a_at) / Fold change (ACY-1035/veh), VPS36 (ProbeSet 11739960_a_at) / RFU SYPL1 (11715823_x_at) / Fold change /veh SYPL1 (11715823_x_at) / RFU IGFBP7 (11715501_s_at) / Fold change /veh IGFBP7 (11715501_s_at) / RFU REEP3 (11722064_at) / Fold change /veh REEP3 (11722064_at) / RFU IGLL1 (11728026_x_at) / Fold change /veh IGLL1 (11728026_x_at): dose or concentration left out as unconfirmed
Details: ProbeSet 11749781_s_at; LIST B

## Nc1ncn([C@@H]2O[C@H](CO)[C@@H](O)[C@H]2O)c(=O)n1 [azacitidine]
  Fold change vs veh, BCAT1: 0.85

— article PMC5218480 (PLoS ONE, 2017)
